Results on twelve compounds are retold here after ChEMBL document CHEMBL4428109, “Structure-activity relationship studies of non-carboxylic acid peroxisome proliferator-activated receptor α/δ (PPARα/δ) dual agonists” (Bioorg Med Chem, 2016).

Holding throughout (format): cell-based
The target in assay [1] is T1, Peroxisome proliferator-activated receptor delta (Homo sapiens) (UniProt Q03181).
T1 sequence (whole entry): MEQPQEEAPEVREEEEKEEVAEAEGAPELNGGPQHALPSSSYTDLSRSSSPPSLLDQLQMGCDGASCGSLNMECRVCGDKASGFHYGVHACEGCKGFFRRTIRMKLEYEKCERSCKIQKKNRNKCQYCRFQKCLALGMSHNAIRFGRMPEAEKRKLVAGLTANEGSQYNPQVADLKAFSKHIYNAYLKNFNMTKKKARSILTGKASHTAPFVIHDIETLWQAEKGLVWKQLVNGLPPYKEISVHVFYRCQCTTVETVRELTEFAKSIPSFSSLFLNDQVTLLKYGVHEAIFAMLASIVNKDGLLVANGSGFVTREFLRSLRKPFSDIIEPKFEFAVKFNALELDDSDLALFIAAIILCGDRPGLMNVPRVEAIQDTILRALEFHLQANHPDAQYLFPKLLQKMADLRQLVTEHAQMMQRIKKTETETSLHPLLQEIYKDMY
The assay is described as follows: Agonist activity at N-terminal Gal4 fused human PPARdelta LBD transfected in HEK293 cells at < 10 uM after 24 hrs by luciferase reporter gene assay. In general terms: A reporter such as luciferase makes a cellular process visible.

For assay [2], the target named is T2, Peroxisome proliferator-activated receptor gamma (Homo sapiens) (UniProt P37231).
T2 sequence (whole entry): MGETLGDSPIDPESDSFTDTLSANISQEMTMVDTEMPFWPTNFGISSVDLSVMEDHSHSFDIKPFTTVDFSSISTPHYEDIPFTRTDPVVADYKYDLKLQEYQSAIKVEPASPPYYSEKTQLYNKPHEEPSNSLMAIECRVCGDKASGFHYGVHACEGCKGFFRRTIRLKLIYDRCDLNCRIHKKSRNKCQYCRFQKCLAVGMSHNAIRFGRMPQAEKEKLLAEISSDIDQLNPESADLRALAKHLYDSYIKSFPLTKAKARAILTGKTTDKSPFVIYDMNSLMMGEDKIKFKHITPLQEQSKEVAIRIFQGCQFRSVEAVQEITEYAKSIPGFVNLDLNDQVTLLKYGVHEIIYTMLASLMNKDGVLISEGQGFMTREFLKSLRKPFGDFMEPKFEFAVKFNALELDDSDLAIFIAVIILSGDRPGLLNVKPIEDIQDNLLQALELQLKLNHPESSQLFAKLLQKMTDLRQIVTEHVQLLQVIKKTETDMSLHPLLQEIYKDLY
The assay can be described thus: Agonist activity at N-terminal Gal4 fused human PPARgamma LBD transfected in HEK293 cells at < 10 uM after 24 hrs by luciferase reporter gene assay.

Assay [3] concerns the target T3, Peroxisome proliferator-activated receptor alpha (Homo sapiens) (UniProt Q07869).
T3 sequence (whole entry): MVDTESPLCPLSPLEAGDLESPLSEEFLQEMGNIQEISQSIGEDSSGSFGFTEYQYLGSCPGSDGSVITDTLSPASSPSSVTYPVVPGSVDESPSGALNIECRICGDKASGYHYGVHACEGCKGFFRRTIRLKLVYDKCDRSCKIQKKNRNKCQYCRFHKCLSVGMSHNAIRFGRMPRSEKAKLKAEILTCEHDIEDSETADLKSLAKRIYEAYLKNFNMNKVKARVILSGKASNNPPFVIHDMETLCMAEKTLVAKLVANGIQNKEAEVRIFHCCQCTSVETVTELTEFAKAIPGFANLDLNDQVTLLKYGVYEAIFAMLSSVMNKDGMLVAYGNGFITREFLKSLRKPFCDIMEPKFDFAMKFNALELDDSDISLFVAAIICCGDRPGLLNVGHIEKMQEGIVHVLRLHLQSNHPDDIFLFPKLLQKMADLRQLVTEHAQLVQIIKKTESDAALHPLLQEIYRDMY
The assay is described as follows: Agonist activity at N-terminal Gal4 fused human PPARalpha LBD transfected in HEK293 cells at < 10 uM after 24 hrs by luciferase reporter gene assay.

For assay [4], the target named is T3, Peroxisome proliferator-activated receptor alpha (Homo sapiens). The assay can be described thus: Agonist activity at N-terminal Gal4 fused human PPARalpha LBD transfected in HEK293 cells after 24 hrs by luciferase reporter gene assay relative to GW7647.
For assay [5], the target named is T4, Peroxisome proliferator-activated receptor delta (Homo sapiens, UniProt Q03181).
T4 sequence (Q03181 whole entry): T1 sequence (whole entry)
The assay is described as follows: Agonist activity at N-terminal Gal4 fused human PPARdelta LBD transfected in HEK293 cells after 24 hrs by luciferase reporter gene assay.

Assay [6] addresses T1, Peroxisome proliferator-activated receptor delta (Homo sapiens). The assay can be described thus: Agonist activity at N-terminal Gal4 fused human PPARdelta LBD transfected in HEK293 cells after 24 hrs by luciferase reporter gene assay relative to GW501516.
Assay [7] concerns the target T5, Peroxisome proliferator-activated receptor alpha (Homo sapiens, UniProt Q07869).
T5 sequence (Q07869 whole entry): T3 sequence (whole entry)
The assay can be described thus: Agonist activity at N-terminal Gal4 fused human PPARalpha LBD transfected in HEK293 cells after 24 hrs by luciferase reporter gene assay.

Calls of active or inactive are those of the source. No cut-off for these calls is given here.

On to `CC(=O)NCc1nc(-c2ccc(Oc3ccc(OCc4ccccc4)cc3)cc2)no1`, for which the outcome in assay [1], in assay [2] and in assay [3] was inactive.

Regarding `COC(=O)NC(C)c1nc(-c2ccc(Oc3ccc(O)cc3)cc2)no1` (centres undefined), the result in assay [1], in assay [2] and in assay [3] was inactive.

With `CC(=O)N[C@H](C)c1nc(-c2ccc(Oc3ccc(OCc4ccccc4)cc3)cc2)no1`, the Emax in assay [4] lay in the range of 10 to 40%. For the same compound, the outcome in assay [1] and in assay [3] was inactive.

For `CC(NC(=O)OC(C)(C)C)c1nc(-c2ccc(Oc3ccc(OCc4ccccc4)cc3)cc2)no1` (centres undefined), in assay [3], the outcome was inactive.

`CC(=O)N[C@@H](C)c1nc(-c2ccc(Oc3ccc(OCc4ccccc4)cc3)cc2)no1`: the values for the Emax in assay [4] and in assay [6] were 10 to 40% and 5 to 15%, respectively. The EC50 (usually the concentration giving half of the maximal effect) in assay [5] was found to be 23 nM; in assay [7] it was 17 nM.

With `COC(=O)NC(C)c1nc(-c2ccc(Oc3ccc(OCc4ccccc4)cc3)cc2)no1` (centres undefined), the figures for the Emax in assay [4] and in assay [6] were 10 to 40% and 5 to 15%, respectively. Also, the EC50 in assay [5] turned out to be 290 nM; in assay [7], 100 nM. For the same compound, the result in assay [2] was inactive.

For the compound `CC(NC(=O)C(F)(F)F)c1nc(-c2ccc(Oc3ccc(OCc4ccccc4)cc3)cc2)no1` (centres undefined), the figures for the Emax in assay [4] and in assay [6] were 10 to 40% and 5 to 15%, respectively. Further, the EC50 in assay [5] worked out at 150 nM; in assay [7], 100 nM. For the same compound, the result in assay [2] was inactive.

Turning to `CC(=O)NC(C)(C)c1nc(-c2ccc(Oc3ccc(OCc4ccccc4)cc3)cc2)no1`, the result in assay [1], in assay [2] and in assay [3] was inactive.

As for `CC(=O)N(C)Cc1nc(-c2ccc(Oc3ccc(OCc4ccccc4)cc3)cc2)no1`, the outcome in assay [1], in assay [2] and in assay [3] was inactive.

For the compound `CCC(NC(C)=O)c1nc(-c2ccc(Oc3ccc(OCc4ccccc4)cc3)cc2)no1` (centres undefined), the results for the Emax in assay [4] and in assay [6] were 10 to 40% and 5 to 15%, respectively. The EC50 is 110 nM in assay [5] and 130 nM in assay [7]. Also, the outcome in assay [2] was inactive.

As for `CC(NC(=O)C(F)(F)F)c1nc(-c2ccc(Oc3ccc(O)cc3)cc2)no1` (centres undefined), the outcome in assay [1], in assay [2] and in assay [3] was inactive.

For `CC(N)c1nc(-c2ccc(Oc3ccc(OCc4ccccc4)cc3)cc2)no1` (centres undefined), the result in assay [3] was inactive.
